Marks after values point to notes of the source that are not given here.
What was measured:
[1] = tested on: Salmonella enterica (ATCC 14028); assay: Disc diffusion antimicrobial screening, Salmonella enterica; format: cell-based; details: 100 µg/disc
Experimental: All compounds were screened for their antimicrobial activity at the Microbiology and Immunology Department, Faculty of Pharmacy, Beni-Suef University. The antimicrobial activity screening was carried out using the disc diffusion method, as described earlier, with some adjustments.
For each indicator microbe, a solution of half McFarland turbidity was prepared in sterile saline, followed by surface streaking of the strains on Mueller-Hinton agar with a sterile cotton swab. Then, sterile filter paper discs (5 mm diameter) preloaded with 100 µg of each compound were applied to the surface of the pre-inoculated plates. Then, the plates were chilled at 4 °C for 100 min before being incubated overnight at the proper temperature for microbial growth. Finally, the diameter of the inhibition zones around each disc was measured to evaluate the antimicrobial activity of the compounds. Ciprofloxacin was used as a standard antibacterial agent at a concentration of 20 µg/disc. Furthermore, DMSO-loaded discs were used as a negative control.

DPPH free radical assay = format: biochemical; details: 540 nm, 30 min, relative to Trolox
Experimental: (§1) Preparation of samples was occurred at the following concentrations: Samples 3a, 4a, 5b, 5d and 5e at final concentrations of 0.5 mg/ml in methanol: DMSO 9:1 v/v. Samples 4b and 4d at final concentrations 0.025 mg/ml in methanol: DMSO 9:1 v/v, sample 5a at final concentrations 0.25 mg/ml in methanol: DMSO 9:1 v/v, Sample 4c, 5c and 4e at final concentrations 0.05 mg/ml in methanol: DMSO 9:1 v/v, sample 3b at final concentration 0.75 mg/ml methanol: DMSO 9:1 v/v. A stock solution of 100 µM concentration of Trolox, a standard used in this experiment, was prepared in methanol from which seven concentrations were prepared, including 50, 40, 30, 20, 15, 10 and 5 µM.
The DPPH (2,2-diphenyl-1-picryl-hydrazyl-hydrate) free radical assay was carried out according to the method of Boly et al. 2016[39]. Briefly, freshly prepared DPPH reagent (100 µl, 0.1% in methanol) was added to 100 µl of the sample on 96 well plates (n = 6). The reaction was incubated at room temp for 30 min in the dark. After completion of the incubation time, the reduction in DPPH colour intensity was measured at 540 nm. Data obtained was represented as means ± SD, according to the following equation, percentage inhibition = [(Average absorbance of blank – average absorbance of the test)/(Average absorbance of blank)] *100. The results were recorded using a microplate reader, FluoStar Omega.
Microsoft Excel® was used to analyse the obtained results. The IC50 values were calculated using Graph pad Prism 6® by converting the concentrations to their logarithmic value and selecting the non-linear inhibitor regression equation (log (inhibitor) vs. normalised response – variable slope equation). The methods used and the final test report (R-SO7320) were obtained from Nawah Scientific.

[2] = tested on: TNF-α in RAW264.7 macrophage cells; assay: In vitro measurement of TNF-α in RAW264.7 macrophage cells (RT-qPCR); format: cell-based
Source text: Both Lipopolysaccharides (LPS) and hispidin were purchased from Sigma (Sigma-Aldrich, St. Louis, MO, USA)[40]. The foetal bovine serum (FBS) and Dulbecco’s modified Eagle’s medium (DMEM) were purchased from Hyclone (General Electric Healthcare Life Sciences, Mississauga, Canada), penicillin streptomycin (P/S) was purchased from Solarbio (Solarbio life sciences, Beijing, P. R. China). Results of all in vitro anti-inflammatory screening were obtained from the confirmatory diagnostic unit, VACSERA, Egypt.
DMEM was used to cultivate the macrophage cells RAW264.7 (Shanghai BOGO Industrial Co., Ltd., Shanghai, China), and supplemented with 10% FBS and 1% P/S (100 U/ml and […], respectively). […] They were treated with various concentrations of hispidin, then with 1 μg/ml LPS for the indicated time.
PBS (1 ml/well) was used to wash the cells in 24-well plates. […] For the experiments, CL Buffer included MgCl2 (M1028; Sigma) or RNasin Plus RNase Inhibitor (N2615; Promega). Before use, both Bio-Rad SPR and CL buffer were equilibrated to room temperature. […] Carefully, the resulting lysates were collected and either analysed immediately or stored frozen ([…]).
RT-qPCR analysis was performed in one-step SYBR Green RT-qPCR. […] A CFX96 real-time PCR instrument (Bio-Rad) was used under the following protocol: 50uC for 10 min, 95uC for 5 min, 95uC for 10 s/61uC for 15 s/72uC for 30 s.
Total RNA purified from cells was used as an RT-qPCR quantification standard.

[3] = tested on: heart function biomarkers (LDH, CK-MB, and troponin); assay: Cardiac function biomarkers in rat serum; format: in vivo, rats; details: 50 mg/kg/day p.o. for 2 weeks, mean ± SEM
Experimental: (§2) Eighteen rats were divided into three groups at random (6 animals in each group). The first group was given a vehicle and served as normal control. […] Ketamine (100 mg/kg) was used to anaesthetise the animals on the 15th day. Blood samples were obtained from the retro orbital, allowed to clot, centrifuged at 1000 g for 15 min, and utilised to examine heart function biomarkers (LDH, CK-MB, and troponin). The abdomen of each rat was opened, and the heart was extracted and washed in ice-cold physiological saline before being harnessed for histological investigation.

heart = assay: Histopathological examination of the heart; format: in vivo; details: rats, two weeks administration, H&E stain
Experimental: as §2

[4] = Dissolution of DPPH samples in DMSO/methanol; format: physicochemical; details: DPPH sample preparation, methanol: DMSO 9:1 v/v
Experimental: as §1

| Structure (SMILES) | antibacterial activity against Salmonella enterica [1] | DPPH test results (µM trolox equivalent/ 1mg sample ± SD) (DPPH free radical assay) | TNF-α fold change [2] | CK-MB [3] | LDH [3] | Troponin I [3] | heart histopathology finding (heart) | solubility of sample in DMSO and methanol [4] |
| --- | --- | --- | --- | --- | --- | --- | --- | --- |
| COc1ccc(NC(=S)N/N=C/c2cn(S(C)(=O)=O)c3ccccc23)cc1 [Compound 4e, (E)-N-(4-Methoxyphenyl)-2{[1-(methylsulfonyl)-1H-indol 3yl]methylene}hydrazinecarbothioamide] | selective antibacterial activity | 161.21 ± 7.98 µM trolox equivalent/ 1mg sample | 0.26 | – | – | – | – | – |
| Cc1ccc(N2C(=O)CSC2=NN=Cc2cn(S(C)(=O)=O)c3ccccc23)cc1 [Compound 5d] | – | – | 0.21 | 0.315 ± 0.035^a,b ng/ml | 536 ± 28^a,b U/L | 0.0015 ± 0.0005^b ng/ml | little or no toxic effects on the heart | didn’t dissolve in DMSO nor in methanol |

Source: article PMC9721424, “Novel N-methylsulfonyl-indole derivatives: biological activity and COX-2/5-LOX inhibitory effect with improved gastro protective profile and reduced cardio vascular risks” (Journal of Enzyme Inhibition and Medicinal Chemistry, 2022)
